The test system of assay [1] is JAK2V617F-expressing human HEL cells. As to the kind of experiment: Cell growth, trypan blue exclusion cell count. The note with it: various doses (10-40 μM), 24 and 48 hours. Type of assay: cell-based. On the procedure: (§1) A mouse Ba/F3 cell line transduced with pMSCV-IRES-GFP was used as a control. Mouse JAK2V617F-GFP-expressing Ba/F3 cell line was kindly provided by Dr. Ross Levine (Human Oncology and Pathogenesis Program, Memorial Sloan-Kettering Cancer Center, New York, NY). Human JAK2V617F-expressing HEL cell line was purchased from ATCC. Cell lines were cultured in RPMI-1640 medium containing 10% FCS and 50 μmol/L 2-mercaptoethanol. Ba/F3 cell line was cultured in the medium mentioned above with 10 ng/ml IL3. C57BL/6J mice were obtained from The Jackson Laboratory.
(§2) Cell numbers were counted in duplicates by trypan blue (Sigma-Aldrich) exclusion at 24 h and 48 h, respectively. FACS analysis was applied for cell cycle test using Hoechst and Pyronin (Sigma-Aldrich) staining, and for apoptosis assay staining with Annexin V and 7-AAD (eBiosciences) according to the manufacturer's instructions. Results are expressed as the mean±SD.

Assay [2] concerns Ba/F3 cells. As to the kind of experiment: Cell growth, trypan blue exclusion cell count. Type of assay: cell-based, mouse. The note with it: various doses (10-40 μM), 24 and 48 hours. On the procedure: as §1, §2
Assay [3] has as its system JAK2V617F-expressing Ba/F3 cells. As to the kind of experiment: Cell growth, trypan blue exclusion cell count. Type of assay: cell-based, mouse. The note with it: various doses (10-40 μM), 24 and 48 hours. The protocol:
as §1, §2

In assay [4] the test system is primary CD34+ blood cells from two CML patients. As to conditions: Yektaei-Karin et al. 2017; cited from earlier work.
Assay [5] has as its system K562 cells. The note with it: Yektaei-Karin et al. 2017; cited from earlier work.
Assay [6] relates to HEL cells. As to the kind of experiment: Apoptosis assay by FACS (Annexin V and 7-AAD). Type of assay: cell-based, human. The note with it: compared with Ba/F3 cells. The protocol: as §1, §2
Assay [7] relates to HEL cells. As to the kind of experiment: Cell-cycle progression by FACS (Hoechst and Pyronin). Type of assay: cell-based, human. On the procedure: as §1, §2
Assay [8] deals with Ba/F3-JAK2V617F cells. As to the kind of experiment: Apoptosis assay by FACS (Annexin V and 7-AAD). Type of assay: cell-based, mouse. As to conditions: compared with Ba/F3 cells. On the procedure: as §1, §2
For assay [9], the system named is JAK2V617F-induced PV mice. The protocol: The bone marrow cells from donor mice, pretreated with 5-fluorouracil (5-FU), were infected with retrovirus containing pMSCV-JAK2V617F-GFP under conditions for the induction of PV as described previously, followed by transplantation of the transduced cells into C57BL/6J recipient mice.
To test this hypothesis, bone marrow cells (BM) were collected for FCM analysis after 4 months treatment.
PV model was induced in mice as follows: Bone marrow cells from 5-FU-treated (200 mg/kg) donor mice were transduced twice with JAK2V617F retrovirus in the presence of IL-3, IL-6, and stem cell factor (SCF). The recipient mice received 1,100 cGy lethal gamma irradiation (given by 2 split 550-cGy doses), followed by 2.0×10^6 cells transplantation via tail vein injection.
Hematopoietic cells were collected from peripheral blood and bone marrow of the PV mice, and red blood cells (RBCs) were eliminated using RBC lysis buffer (pH 7.4). Then the cells were stained with fluorescence-labeled antibodies (Gr−1 for neutrophils, c-kit and Sca−1 for stem cells) and subjected to FACS analysis. These antibodies were purchased from eBioscience Biotechnology. Data were acquired on a FACS Calibur flow cytometric analyzer (Becton Dickinson).
Water was used as placebo.

Assay [10] has as its system Ba/F3-JAK2V617F cells. As to the kind of experiment: Cell-cycle progression by FACS (Hoechst and Pyronin). Type of assay: cell-based, mouse. On the procedure:
as §1, §2

Assay [11] has as its system parental Ba/F3 cells. Described as above. The note with it: parental Ba/F3 cells that do not express JAK2V617F. Type of assay: cell-based, mouse. On the procedure: as §1, §2
Assay [12] concerns KCL22 cells. As to conditions: Yektaei-Karin et al. 2017; cited from earlier work.
Assay [13] has as its system KU812 cells. The note with it: Yektaei-Karin et al. 2017; cited from earlier work.
In assay [14] the test system is human CD34+ cells from Polycythemia Vera (PV) patients. The note with it: Chen et al., Cancer Research 77(1):164-174; cited from earlier work.
Assay [15] has as its system JAK2V617F-induced PV in mice. The note with it: Chen et al., Cancer Research 77(1):164-174; cited from earlier work.
Setting [16] is: PV mice, 150 mg/kg once a day by gavage, vs placebo.
Where [17] appears, read: PV mice, 150 mg/kg once a day by gavage, vs placebo, from 3rd month post treatment.
[18] abbreviates: PV mice, 150 mg/kg once a day by gavage, vs placebo, 150 mg/kg.
Where [19] appears, read: PV mice, after 4 months treatment, vs placebo.

Each structure is given as a SMILES string. “Also recorded” adds a separate entry of the source.

Turning to `CC(C)(O)c1ccccc1CC[C@@H](SCC1(CC(=O)[O-])CC1)c1cccc(/C=C/c2ccc3ccc(Cl)cc3n2)c1.[Na+]` [Montelukast, (R-(E))-1-(((1-(3-(2-(7-Chloro-2-quinolinyl)ethenyl)phenyl)-3-(2-(1-hydroxy-1-methylethyl)phenyl)propyl)thio)methyl)-cyclopropaneacetic acid], the cell growth result is “dose-dependent growth inhibition” in assay [1]; “dose-dependent growth inhibition” in assay [2]; “dose-dependent growth inhibition” in [3]; “significantly reduced the growth” in [4]; “significantly reduced the growth” in assay [5]; “significantly reduced the growth” in assay [12]. Also, the cell growth result in [13] is on record as “significantly reduced the growth”. The apoptosis result in assay [6] and in assay [8] was “more dramatic apoptosis” in each case. Also, the cell-cycle progression result is listed as “blockade of cell-cycle progression” in [7], “blockade of cell-cycle progression” in assay [10] and “no significant cell-cycle block effect” in [11]. The “non GFP (GFP-) cells (FIG. 5)” value in assay [9] (PV mice vs placebo, at 10 weeks) is “showed a loss”. Moreover, in assay [9] (PV mice vs placebo, by 6 and 10 weeks post treatment), the “GFP+ cells (FIG. 5)” value is on record as “loss of the GFP+ cells”. Moreover, the “level of PLT” value in assay [9] (setting [16]) is recorded as “did not significantly affect”. Further, the “level of RBC” value in assay [9] (setting [16]) is “did not significantly affect”. For the same compound, the “GFP+Gr-1+ PV cell number in peripheral blood” value in assay [9] (setting [17]) is “increased more slowly”. For the same compound, the “GFP+Gr-1+ PV cell percentage in peripheral blood” value in assay [9] (setting [17]) is given as “increased more slowly”. Moreover, the HCT entry in [9] (setting [18]) was “had an inhibitor compound effect”. In addition, the HGB entry in [9] (setting [18]) is “had an inhibitor compound effect”. In addition, in [9] (setting [18]), the “fibrosis in bone marrow” value is on record as “efficiently relieved the fibrosis; also recorded: efficiently relieved fibrosis morphology”. Also, the “GFP-Gr-1+ cell number in peripheral blood” value in assay [9] (PV mice, 150 mg/kg once a day by gavage, vs placebo, normal cells, 150 mg/kg) is reported as “didn't show significant difference; also recorded: did not show a significant difference”. In addition, in assay [9] (setting [19]), the “GFP+ PV cell number in BM” value is “dramatic decrease”. In assay [9] (setting [19]), the “GFP+ PV cell percentage in BM” value was “dramatic decrease”.
For `CC(c1cc2ccccc2s1)N(O)C(N)=O` (centres unmarked) [Zileuton], the “proliferation of human CD34+ cells from PV patients” value in assay [14] is given as “reducing proliferation”. In addition, in assay [15], the “development of PV in mice” value was “attenuates the development of PV”.

The record behind these values is patent US20230355608A1, “TARGETING POLYCYTHEMIA VERA (PV)-INITIATING CELLS BY BLOCKING LEUKOTRIENE BINDING TO THEIR RECEPTORS” (UNIVERSITY OF MASSACHUSETTS, priority 2020, published 2023).
